From PubChem BioAssay (NCI) come the findings set out here.

Several values for one entry are separate records, joined by “and”; a condition that tells them apart may be missing. Equal values may be shown once.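 Each compound was tested at five concentrations against cells in 96-well plates for 48 hours. GI50 = concentration required for 50% inhibition of growth. TGI denotes the concentration required for complete inhibition of growth.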

One test has as its system RXF 393 renal. As to the kind of experiment: NCI anticancer screen, dose series, 48 h.
Regarding `CN1C(=O)/C(=C/c2c(Cl)n(C)c3ccccc23)c2ccccc21`, the GI50 is 7.89 µM and 1.56 µM; the TGI was 3.84 µM.
Turning to `COc1cc2c(c(OC)c1OC)-c1ncc3cc4c(cc3c1C2)OCO4`, the GI50 was 24.2 µM and the TGI came to 83.8 µM.
Take `CC1=C(C(=O)Nc2ccc(Cl)c(Cl)c2)C(c2cccc(Oc3ccccc3)c2)NC(=O)N1` (centres undefined): the GI50 is 9.61 µM and the TGI turned out to be 26.5 µM.
`COC(=O)[C@H]1C=C[C@@H](C)n2c(=O)c3cc4ccccc4cc3c(=O)n21`: the TGI is above 100 µM.
In turn, `O=C(O)c1ccc(OCc2ccccc2)c(Cl)c1` yielded a TGI above 100 µM.
Compound `COc1cc(C=O)c(-c2cc(OC)c(OC)cc2C=O)cc1OC` returned a TGI of 86.3 µM.
Consider `N#CC(C(=O)C(=O)Nc1ccc(Cl)cc1)c1ccccc1` (centres undefined), for which the TGI was above 100 µM.
Compound `CCOc1ccncc1[N+](=O)[O-]` returned a TGI above 100 µM.
As to `COc1c[c]([Hg][O]C(C)=O)c(OC)c(NC(=O)CC(C)=O)[c]1[Hg][O]C(C)=O`, the GI50 was 2.86 µM and the TGI worked out at 7.3 µM.
Take `Cc1nc2sc3c(c2c(=O)[nH]1)CCCC3`: the TGI is above 100 µM.
Consider `O=C(/C=C/c1ccccc1Cl)NC1C=Nc2ccc([N+](=O)[O-])cc2NC1` (centres undefined), for which the TGI was above 100 µM.
`Cc1ccc(C)c(N=C2NC(=O)C(CC(=O)Nc3ccc(Cl)cc3Cl)S2)c1` (centres undefined) had a TGI above 100 µM.
The compound `Cc1cc(NS(=O)(=O)c2ccc(Nc3c4ccccc4nc4c(C(=O)N5CCN(CCO)CC5)ccc(Cl)c34)cc2)no1` gave a TGI above 100 µM.
`COc1ccc(CCNC(=O)c2ccc(NC3=C(Cl)C(=O)N(Cc4ccccc4)C3=O)cc2)cc1OC`: the GI50 was 7.83 µM and the TGI is above 100 µM.
For `Cc1nc([N+](=O)[O-])cn1CC(=N)N`, the TGI is above 100 µM.
`COC(=O)/C=C/c1c(CC=C(C)C)ncn1C` gave a TGI above 87 µM.
`CC(C)C(=O)Nc1nc2c(ncn2C2OC(CO)C(O)C2O)c(=O)[nH]1` (centres undefined) returned a TGI above 100 µM.
The same measure, in the same setting: as for `O=CN1CCN(CC(O)CN2CCCCC2)CC1` (centres undefined), the figure is above 100 µM.
Same read-out and setting: as for `O=S(=O)(c1ccccc1)C1CN2OC1(S(=O)(=O)c1ccccc1)CC2c1ccc(Br)cc1` (centres undefined), the figure is 46.5 µM; as for `NCCSc1nc(-c2ccccc2)c(-c2ccccc2)o1`, above 100 µM; as for `CC(=O)O[C@H]1CCC2[C@@H]3CCC4Nc5[nH]ncc5C[C@]4(C)C3CC[C@@]21C` (some centres undefined), above 100 µM.
Turning to `Cc1cc(C)nc(NS(=O)(=O)c2ccc(NC(=O)c3cccc4c(Nc5ccc(S(N)(=O)=O)cc5)c5ccccc5nc34)cc2)n1`, the TGI is above 81.8 µM.
As to `Cc1cc(S(=O)(=O)O)c(NC(=O)C(=O)Cc2cc(=O)oc3cc(O)ccc23)cc1Cl`, the TGI was above 100 µM.

Another test has as its system A549 NSCLC. As to the kind of experiment: NCI anticancer screen, dose series, 48 h.
The compound `COc1ccc(-c2coc3c4c(ccc3c2=O)OCO4)cc1OC` returned a TGI above 100 µM.
On to `O=C1c2ccccc2-c2c1c1ccccc1c(=O)n2CCCCl`, for which the GI50 was 3.23 µM and the TGI stood at 16 µM.
`CN1C(=O)/C(=C/c2c(Cl)n(C)c3ccccc23)c2ccccc21`: the GI50 was 7.78 µM.
With `COc1cc2c(c(OC)c1OC)-c1ncc3cc4c(cc3c1C2)OCO4`, the GI50 is 21.1 µM and the TGI is 97.9 µM.
On to `CC1=C(C(=O)Nc2ccc(Cl)c(Cl)c2)C(c2cccc(Oc3ccccc3)c2)NC(=O)N1` (centres undefined), for which the GI50 was 3.94 µM and the TGI is above 50 µM.
In turn, `COC(=O)[C@H]1C=C[C@@H](C)n2c(=O)c3cc4ccccc4cc3c(=O)n21` showed a TGI above 100 µM.
`O=C(O)c1ccc(OCc2ccccc2)c(Cl)c1` displayed a TGI above 100 µM.
Same read-out and setting: as for `COc1cc(C=O)c(-c2cc(OC)c(OC)cc2C=O)cc1OC`, the figure is above 100 µM; as for `N#CC(C(=O)C(=O)Nc1ccc(Cl)cc1)c1ccccc1` (centres undefined), above 100 µM; as for `CCOc1ccncc1[N+](=O)[O-]`, above 100 µM.
Consider `COc1c[c]([Hg][O]C(C)=O)c(OC)c(NC(=O)CC(C)=O)[c]1[Hg][O]C(C)=O`, for which the GI50 is 26 µM and the TGI stood at 45.9 µM.
`Cc1nc2sc3c(c2c(=O)[nH]1)CCCC3` came in with a TGI above 100 µM.
`O=C(/C=C/c1ccccc1Cl)NC1C=Nc2ccc([N+](=O)[O-])cc2NC1` (centres undefined) displayed a TGI above 100 µM.
With `Cc1ccc(C)c(N=C2NC(=O)C(CC(=O)Nc3ccc(Cl)cc3Cl)S2)c1` (centres undefined), the TGI is above 100 µM.
Same read-out and setting: as for `Cc1cc(NS(=O)(=O)c2ccc(Nc3c4ccccc4nc4c(C(=O)N5CCN(CCO)CC5)ccc(Cl)c34)cc2)no1`, the figure is above 100 µM.
For `COc1ccc(CCNC(=O)c2ccc(NC3=C(Cl)C(=O)N(Cc4ccccc4)C3=O)cc2)cc1OC`, the GI50 is 33.1 µM and the TGI is above 100 µM.
In turn, `Cc1nc([N+](=O)[O-])cn1CC(=N)N` yielded a TGI above 100 µM.
`COC(=O)/C=C/c1c(CC=C(C)C)ncn1C` yielded a TGI above 100 µM.
On to `CC(C)C(=O)Nc1nc2c(ncn2C2OC(CO)C(O)C2O)c(=O)[nH]1` (centres undefined), for which the TGI is above 100 µM.
`O=CN1CCN(CC(O)CN2CCCCC2)CC1` (centres undefined): the TGI is above 100 µM.
On the same count and under the same terms, as for `O=S(=O)(c1ccccc1)C1CN2OC1(S(=O)(=O)c1ccccc1)CC2c1ccc(Br)cc1` (centres undefined), the figure is above 100 µM; as for `NCCSc1nc(-c2ccccc2)c(-c2ccccc2)o1`, above 100 µM.
For the compound `CC(=O)O[C@H]1CCC2[C@@H]3CCC4Nc5[nH]ncc5C[C@]4(C)C3CC[C@@]21C` (some centres undefined), the TGI is above 100 µM.
Still for that read-out and setting: as for `Cc1cc(C)nc(NS(=O)(=O)c2ccc(NC(=O)c3cccc4c(Nc5ccc(S(N)(=O)=O)cc5)c5ccccc5nc34)cc2)n1`, the figure is above 100 µM; as for `Cc1cc(S(=O)(=O)O)c(NC(=O)C(=O)Cc2cc(=O)oc3cc(O)ccc23)cc1Cl`, above 100 µM.

Another test has as its system DU-145 prostate. As to the kind of experiment: NCI anticancer screen, dose series, 48 h.
Turning to `COc1ccc(-c2coc3c4c(ccc3c2=O)OCO4)cc1OC`, the TGI was above 100 µM.
Turning to `O=C1c2ccccc2-c2c1c1ccccc1c(=O)n2CCCCl`, the GI50 is 6.22 µM and the TGI is above 100 µM.
For `CN1C(=O)/C(=C/c2c(Cl)n(C)c3ccccc23)c2ccccc21`, the GI50 was 5.05 µM.
Regarding `COc1cc2c(c(OC)c1OC)-c1ncc3cc4c(cc3c1C2)OCO4`, the GI50 was 23.2 µM and the TGI is above 100 µM.
